The experiment deals with T1, STING (Homo sapiens, UniProt Q86WV6, G230A/H232R/R293Q/R71H).
T1 construct: host or cells: THP1-Dual KO-IFNAR2 cells
T1 sequence (Q86WV6 whole entry R71H/G230A/H232R/R293Q): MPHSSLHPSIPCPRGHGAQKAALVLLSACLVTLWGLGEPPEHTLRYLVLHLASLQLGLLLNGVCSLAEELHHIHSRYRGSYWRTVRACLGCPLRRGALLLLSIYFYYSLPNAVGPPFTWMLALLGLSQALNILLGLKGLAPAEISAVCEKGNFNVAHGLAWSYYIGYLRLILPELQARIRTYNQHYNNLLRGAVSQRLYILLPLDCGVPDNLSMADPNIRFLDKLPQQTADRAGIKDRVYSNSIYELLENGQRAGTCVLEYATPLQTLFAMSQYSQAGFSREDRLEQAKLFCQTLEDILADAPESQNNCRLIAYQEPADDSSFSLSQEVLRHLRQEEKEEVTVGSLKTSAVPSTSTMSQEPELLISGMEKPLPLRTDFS
The experiment is described as follows: STING reporter assay: luciferase reporter activity in THP1-Dual KO-IFNAR2 cells stimulated with 2′3′cGAMP. The class given is cell-based. The settings on record: 15 μM 2′3′cGAMP, 24h, read-out: hSTING EC50. The gist of the method:
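THP1-Dual KO-IFNAR2 cells (2×10E6 cells/mL) were exposed to compounds at 0.0017-100 μM, then stimulated with 2′3′cGAMP (15 μM final) transfected via Lipofectamine 2000. After 24h at 37° C., secreted luciferase in supernatant was read by QUANTI-Luc luminescence; EC50 derived from concentration-response.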
`CCc1ccc(-n2cc(-c3ccc4[nH]cc(NC(=O)C5CN(C)C5)c4c3)cn2)cc1` [Compound 129, N-(5-(1-(4-ethylphenyl)-1H-pyrazol-4-yl)-1H-indol-3-yl)-1-methylazetidine-3-carboxamide]: the EC50 (in general, the concentration at which the effect is half-maximal) lay within 5 to 100 µM.

Turning to `CC(=O)N1CC(C(=O)Nc2c[nH]c3ccc(-c4cnn(-c5ccc(C(F)(F)F)cc5)c4)cc23)C1` [Compound 223, 1-acetyl-N-(5-(1-(4-(trifluoromethyl)phenyl)-1H-pyrazol-4-yl)-1H-indol-3-yl)azetidine-3-carboxamide], the half-maximal effective concentration (EC50) fell in the range of 1 to 5 µM.

For `CC(C)(C)C(=O)Nc1c[nH]c2ccc(-c3cnn(-c4ccc(C(F)(F)F)cc4)c3)cc12` [Compound 216, N-(5-(1-(4-(trifluoromethyl)phenyl)-1H-pyrazol-4-yl)-1H-indol-3-yl)pivalamide], the concentration giving a half-maximal response (EC50) lay within 1 to 5 µM.

For the compound `Cn1ccnc1C(=O)Nc1c[nH]c2ccc(-c3cnn(-c4ccc(C(F)(F)F)cc4)c3)cc12` [Compound 269, 1-methyl-N-(5-(1-(4-(trifluoromethyl)phenyl)-1H-pyrazol-4-yl)-1H-indol-3-yl)-1H-imidazole-2-carboxamide], the EC50 fell in the range of 1 to 5 µM.

As for `O=C(Nc1c[nH]c2ccc(-c3cnn(-c4ccc(C(F)(F)F)cc4)c3)cc12)C1CCC(CO)CC1` (stereo not shown) [Compound 188, 4-(hydroxymethyl)-N-(5-(1-(4-(trifluoromethyl)phenyl)-1H-pyrazol-4-yl)-1H-indol-3-yl)cyclohexane-1-carboxamide], the EC50 lay within 1 to 5 µM.

Regarding `CCC(=O)Nc1c[nH]c2ccc(-c3cc(C#N)cs3)cc12` [Compound 136, N-(5-(4-cyanothiophen-2-yl)-1H-indol-3-yl)propionamide], the EC50 was in the range of 1 to 5 µM.

For `CN1CC(C(=O)Nc2c[nH]c3ccc(-c4cnn(-c5ccc(C(F)(F)F)cc5)c4)cc23)CCC1=O` (stereo not shown) [Compound 224, 1-methyl-6-oxo-N-(5-(1-(4-(trifluoromethyl)phenyl)-1H-pyrazol-4-yl)-1H-indol-3-yl)piperidine-3-carboxamide], the EC50 was 1 to 5 µM.

Consider `CC1=NOC(C)(C(=O)Nc2c[nH]c3ccc(-c4cnn(-c5ccc(C(F)(F)F)cc5)c4)cc23)C1` (stereo not shown) [Compound 230, 3,5-dimethyl-N-(5-(1-(4-(trifluoromethyl)phenyl)-1H-pyrazol-4-yl)-1H-indol-3-yl)-4,5-dihydroisoxazole-5-carboxamide], for which the concentration giving a half-maximal response (EC50) lay in the range of 5 to 100 µM.

Turning to `CCc1ccc(-n2cc(-c3ccc4[nH]cc(NC(=O)C(C)C)c4c3)cn2)cc1` [Compound 133, N-(5-(1-(4-ethylphenyl)-1H-pyrazol-4-yl)-1H-indol-3-yl)isobutyramide], the EC50 fell in the range of 0.04 to 0.2 µM.

As to `CC1(C(=O)Nc2c[nH]c3ccc(-c4cnn(-c5ccc(C(F)(F)F)cc5)c4)cc23)COC1` [Compound 232, 3-methyl-N-(5-(1-(4-(trifluoromethyl)phenyl)-1H-pyrazol-4-yl)-1H-indol-3-yl)oxetane-3-carboxamide], the concentration for a half-maximal effect (EC50) lay in the range of 0.2 to 1 µM.

Turning to `CCC(=O)Nc1c[nH]c2ccc(-c3cnn(-c4cccc(Cl)c4)c3)cc12` [Compound 149, N-(5-(1-(3-chlorophenyl)-1H-pyrazol-4-yl)-1H-indol-3-yl)propionamide], the half-maximal effective concentration (EC50) was in the range of 0.2 to 1 µM.

Regarding `C[C@@H](O)C(=O)Nc1c[nH]c2cc(F)c(-c3cnn(-c4ccc(C(F)(F)F)cc4)c3)cc12` [Compound 192, (R)-N-(6-fluoro-5-(1-(4-(trifluoromethyl)phenyl)-1H-pyrazol-4-yl)-1H-indol-3-yl)-2-hydroxypropanamide], the concentration for a half-maximal effect (EC50) lay within 0.2 to 1 µM.

Consider `CCC(=O)Nc1c[nH]c2ccc(-c3ccc(-c4cnn(C(C)C)c4)cc3)cc12` [Compound 118, N-(5-(4-(1-isopropyl-1H-pyrazol-4-yl)phenyl)-1H-indol-3-yl)propionamide], for which the concentration giving a half-maximal response (EC50) lay in the range of 1 to 5 µM.

For `O=C(Nc1c[nH]c2ccc(-c3cnn(-c4ccc(C(F)(F)F)cc4)c3)cc12)[C@@H]1CC(F)(F)CN1` [compound 184, (S)-4,4-difluoro-N-(5-(1-(4-(trifluoromethyl)phenyl)-1H-pyrazol-4-yl)-1H-indol-3-yl)pyrrolidine-2-carboxamide], the EC50 lay within 5 to 100 µM.

As for `CCC(=O)Nc1c[nH]c2ccc(-c3cnn(CC4CC4)c3)cc12` [Compound 148, N-(5-(1-(cyclopropylmethyl)-1H-pyrazol-4-yl)-1H-indol-3-yl)propionamide], the EC50 was in the range of 5 to 100 µM.

`CCC(=O)Nc1c[nH]c2ccc(-c3cnn(-c4cccc(CC)c4)c3)cc12` [Compound 128, N-(5-(1-(3-ethylphenyl)-1H-pyrazol-4-yl)-1H-indol-3-yl)propionamide]: the EC50 was in the range of 0.2 to 1 µM.
